Experiment [1] deals with Tyrophagus putrescentiae. The experiment in a line: Insecticidal activity against Tyrophagus putrescentiae assessed as mortality at 0.40 g/m'2 after 24 hr by clip method. Type of experiment: functional.
Experiment [2] relates to Dermatophagoides farinae. The experiment in a line: Insecticidal activity against Dermatophagoides farinae assessed as mortality after 24 hr by clip method. Format: functional.
For the next experiment, the target named is T1, Carboxypeptidase A1 (Bos taurus, UniProt P00730).
T1 sequence (P00730 whole entry): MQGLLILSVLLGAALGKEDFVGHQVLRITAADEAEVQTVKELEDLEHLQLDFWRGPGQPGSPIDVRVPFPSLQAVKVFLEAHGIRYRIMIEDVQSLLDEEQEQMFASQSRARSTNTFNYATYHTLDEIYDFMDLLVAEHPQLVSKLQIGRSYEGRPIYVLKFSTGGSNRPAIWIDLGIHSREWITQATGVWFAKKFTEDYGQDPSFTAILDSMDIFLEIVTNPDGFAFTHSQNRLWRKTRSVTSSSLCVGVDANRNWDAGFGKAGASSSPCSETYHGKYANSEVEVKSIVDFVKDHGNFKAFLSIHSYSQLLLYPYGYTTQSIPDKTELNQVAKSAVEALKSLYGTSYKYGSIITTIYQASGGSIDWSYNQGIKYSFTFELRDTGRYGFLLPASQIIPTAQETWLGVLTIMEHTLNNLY
The experiment in a line: Inhibition of Bos taurus (bovine) pancrease carboxypeptidase A after 15 min.

The test system of experiment [3] is Coptotermes formosanus. The experiment is described as follows: Insecticidal activity against Coptotermes formosanus assessed as mortality at 0.100 g/m'2 after 24 hr. Format: functional.
In experiment [4] the test system is Dermatophagoides farinae. The experiment is described as follows: Insecticidal activity against Dermatophagoides farinae assessed as mortality at 0.05 g/m'2 after 24 hr by clip method. Type of experiment: functional.
For another experiment, the target named is T2, Collagenase ColG (Clostridium histolyticum, UniProt Q9X721).
T2 sequence (Q9X721 whole entry): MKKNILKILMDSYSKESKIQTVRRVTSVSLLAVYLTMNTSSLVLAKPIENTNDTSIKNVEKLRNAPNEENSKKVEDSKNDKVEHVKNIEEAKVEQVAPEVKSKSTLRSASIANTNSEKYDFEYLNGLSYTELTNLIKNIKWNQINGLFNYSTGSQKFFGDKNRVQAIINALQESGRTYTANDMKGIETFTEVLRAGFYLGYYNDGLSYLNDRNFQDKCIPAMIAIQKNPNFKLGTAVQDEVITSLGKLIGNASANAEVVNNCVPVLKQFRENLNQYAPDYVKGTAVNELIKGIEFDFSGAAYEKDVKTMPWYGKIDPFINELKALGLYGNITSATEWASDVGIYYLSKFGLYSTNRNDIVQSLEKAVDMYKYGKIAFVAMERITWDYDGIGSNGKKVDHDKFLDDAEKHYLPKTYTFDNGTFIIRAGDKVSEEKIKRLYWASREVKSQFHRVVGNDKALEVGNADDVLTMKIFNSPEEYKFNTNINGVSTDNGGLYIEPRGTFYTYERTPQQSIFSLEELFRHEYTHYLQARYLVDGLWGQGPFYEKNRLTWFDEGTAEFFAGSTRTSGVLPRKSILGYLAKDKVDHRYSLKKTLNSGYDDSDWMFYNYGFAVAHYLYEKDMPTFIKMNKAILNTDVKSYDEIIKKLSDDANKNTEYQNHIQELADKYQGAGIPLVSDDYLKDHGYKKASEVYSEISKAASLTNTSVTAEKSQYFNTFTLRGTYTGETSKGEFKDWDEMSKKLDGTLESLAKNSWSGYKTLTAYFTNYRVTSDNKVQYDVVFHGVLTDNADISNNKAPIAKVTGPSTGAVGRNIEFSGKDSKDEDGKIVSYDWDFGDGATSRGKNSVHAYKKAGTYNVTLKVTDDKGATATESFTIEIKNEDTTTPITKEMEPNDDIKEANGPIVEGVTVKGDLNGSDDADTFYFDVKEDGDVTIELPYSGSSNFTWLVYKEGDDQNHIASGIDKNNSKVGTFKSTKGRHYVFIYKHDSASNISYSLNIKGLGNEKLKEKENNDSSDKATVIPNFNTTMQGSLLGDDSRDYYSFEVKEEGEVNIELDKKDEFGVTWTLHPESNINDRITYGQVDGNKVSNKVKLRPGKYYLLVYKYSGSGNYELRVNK
The experiment is described as follows: Inhibition of Clostridium histolyticum collagenase after 15 min. Set-up: species or system Hathewaya histolytica.

Experiment [5] concerns Dermatophagoides farinae. The experiment in a line: Insecticidal activity against Dermatophagoides farinae assessed as mortality at 0.10 g/m'2 after 24 hr by clip method. Type of experiment: functional.
The subject of experiment [6] is Coptotermes formosanus. The experiment in a line: Insecticidal activity against Coptotermes formosanus assessed as mortality at 0.200 g/m'2 after 48 hr. Format: functional.
Another experiment relates to Botrytis cinerea. The experiment is described as follows: Antifungal activity against Botryotinia fuckeliana IFO 30915 after 15 days by agar dilution method. Format: functional. As to conditions: IFO 30915, 360 h. Background: Agar dilution tests growth on a series of plates holding different concentrations.
For the next experiment, the system named is Phomopsis obscurans. The experiment in a line: Antifungal activity against Phomopsis obscurans MAFF 744018 after 15 days by agar dilution method. Type of experiment: functional. Conditions: Paraphomopsis obscurans, MAFF 744018, 360 h.
Experiment [7] deals with Dermatophagoides farinae. The experiment is described as follows: Insecticidal activity against Dermatophagoides farinae assessed as mortality at 0.20 g/m'2 after 24 hr by clip method. Type of experiment: functional.
Experiment [8] has as its system Coptotermes formosanus. The experiment in a line: Insecticidal activity against Coptotermes formosanus assessed as mortality at 0.050 g/m'2 after 48 hr. Type of experiment: functional.
For experiment [9], the system named is Coptotermes formosanus. The experiment is described as follows: Insecticidal activity against Coptotermes formosanus assessed as mortality at 0.200 g/m'2 after 24 hr. Type of experiment: functional.
The test system of experiment [10] is Coptotermes formosanus. The experiment in a line: Insecticidal activity against Coptotermes formosanus assessed as mortality. Format: functional.
Experiment [11] deals with Tyrophagus putrescentiae. The experiment is described as follows: Insecticidal activity against Tyrophagus putrescentiae assessed as mortality at 0.20 g/m'2 after 24 hr by clip method. Format: functional.
Experiment [12] has as its system Coptotermes formosanus. The experiment is described as follows: Insecticidal activity against Coptotermes formosanus assessed as mortality at 0.050 g/m'2 after 24 hr. Format: functional.
Another experiment deals with Thanatephorus cucumeris. The experiment is described as follows: Antifungal activity against Thanatephorus cucumeris IFO 30445 after 15 days by agar dilution method. Format: functional. As to conditions: IFO 30445, 360 h.
For another experiment, the system named is Fusarium solani. The experiment is described as follows: Antifungal activity against Fusarium solani IFO 9955 after 15 days by agar dilution method. Format: functional. Conditions: IFO 9955, 360 h.
Experiment [13] deals with Colletotrichum orbiculare. The experiment in a line: Antifungal activity against Colletotrichum orbiculare MAFF 306518 after 15 days by agar dilution method. Type of experiment: functional. Conditions: MAFF 306518, 360 h.
Experiment [14] has as its system Coptotermes formosanus. The experiment in a line: Insecticidal activity against Coptotermes formosanus assessed as mortality at 0.100 g/m'2 after 48 hr. Format: functional.
A further experiment has as its system Pythium aphanidermatum. The experiment in a line: Antifungal activity against Pythium aphanidermatum IFO 32440 after 15 days by agar dilution method. Type of experiment: functional. Conditions: IFO 32440, 360 h.
The next experiment relates to Colletotrichum lagenaria. The experiment is described as follows: Antifungal activity against Colletotrichum lagenaria after 15 days by agar dilution method. Format: functional. As to conditions: 360 h.

≈ marks a conversion by molar mass, not a printed value.

For orientation: mortality means the percentage killed. As usually defined, the IC50 is the concentration that inhibits the measured activity by half. What is called MIC is the lowest concentration found to suppress growth. A lower MIC goes with a more susceptible organism. With `CC(C)c1cccc(=O)c(O)c1` [HINOKITIOL], the mortality in the experiment with Tyrophagus putrescentiae [1] came out at 77.5%; in the experiment on Coptotermes formosanus [3], 50%; with Dermatophagoides farinae [4], 18.8%; in the experiment on Dermatophagoides farinae [5], 45.2%; in the experiment with Coptotermes formosanus [6], 100%; with Dermatophagoides farinae [7], 96.3%. The mortality was determined as 50% in the experiment on Coptotermes formosanus [8]; 100% in the experiment on Coptotermes formosanus [9]; 33.6% with Tyrophagus putrescentiae [11]; 40% in the experiment on Coptotermes formosanus [12]; 100% in the experiment on Coptotermes formosanus [14]. Also, the LC50 in the experiment on Dermatophagoides farinae [2] is listed as 0.37 g/m2; in the experiment with Coptotermes formosanus [10] it was 0.08 g/m2. Besides, the results for the IC50 on Carboxypeptidase A1 and against Collagenase ColG were 2.76 µM and 24 µM, respectively. Moreover, the MIC in the experiment on Botrytis cinerea came out at 50 µg/mL (≈ 304 µM); with Phomopsis obscurans, 12 µg/mL (≈ 73.1 µM); against Thanatephorus cucumeris, 12 µg/mL (≈ 73.1 µM); in the experiment on Fusarium solani, 50 µg/mL (≈ 304 µM); in experiment [13] it was 25 µg/mL (≈ 152 µM); in the experiment with Pythium aphanidermatum it was 12 µg/mL (≈ 73.1 µM). This compound also had a minimum inhibitory concentration (MIC) in the experiment on Colletotrichum lagenaria of 25 µg/mL (≈ 152 µM).
On to `O=c1cccccc1O` [TROPOLONE], for which the mortality turned out to be 55.8% in the experiment with Tyrophagus putrescentiae [1]; 78.9% with Coptotermes formosanus [3]; 7.5% with Dermatophagoides farinae [4]; 24.5% with Dermatophagoides farinae [5]; 100% in the experiment with Coptotermes formosanus [6]; 95.7% in the experiment on Dermatophagoides farinae [7]. Moreover, the mortality is reported as 77.8% with Coptotermes formosanus [8]; 100% in the experiment with Coptotermes formosanus [9]; 9.6% with Tyrophagus putrescentiae [11]; 45% with Coptotermes formosanus [12]; 89.5% in the experiment with Coptotermes formosanus [14]. Further, the LC50 in the experiment with Dermatophagoides farinae [2] was determined as 0.08 g/m2; in the experiment with Coptotermes formosanus [10] it was 0.04 g/m2. The IC50 came out at 2.73 µM on Carboxypeptidase A1 and 46.8 µM against Collagenase ColG. The MIC was 25 µg/mL (≈ 205 µM) in the experiment with Botrytis cinerea; 12 µg/mL (≈ 98.3 µM) with Phomopsis obscurans; 12 µg/mL (≈ 98.3 µM) with Thanatephorus cucumeris; 25 µg/mL (≈ 205 µM) against Fusarium solani; 12 µg/mL (≈ 98.3 µM) in experiment [13]; 6 µg/mL (≈ 49.1 µM) against Pythium aphanidermatum. In addition, the minimum inhibitory concentration (MIC) with Colletotrichum lagenaria was 12 µg/mL (≈ 98.3 µM).

(Values after ChEMBL document CHEMBL3046644, “Biological activity of tropolone” (Biol Pharm Bull, 2003).)
